Experimental findings from patent US10899756B2, “Phosphodiesterase inhibitors and uses thereof” (The Trustees of Columbia University in the City of New York, priority 2013, dated 2021) are described below.

The target in the assay is PDE5 (Homo sapiens (Human), UniProt O76074). As to the kind of experiment: PDE5 Inhibition Assay (BPS PDE assay kit, fluorescence polarization). The class given is biochemical. As to the method:
Materials and Methods: PDE5 inhibition was assayed at BPS Bioscience (San Diego, Calif.) using BPS PDE assay kits (BPS Catalog number 60300, enzyme lot 090810). Test compounds were supplied as liquid solutions of 10 mM concentration in DMSO. Sildenafil, used as a standard was dissolved in DMSO. Intermediate dilutions were 10% DMSO in PDE assay buffer and tests at ranges from 0.1 to 100 nM. 0.1 ng of enzyme was used per reaction, and the substrate was 100 nM FAM-cGMP.
Assay conditions: A series of dilutions of the test compounds were prepared with 10% DMSO in assay buffer and 5 μl of the dilution was added to a 50 μl reaction so that the final concentration of DMSO is 1% in all of reactions. The enzymatic reactions were conducted at room temperature for 60 minutes in a 50 μl mixture containing PDE assay buffer, 100 nM FAM-cAMP or 100 nM FAM-cGMP, a PDE enzyme, and the test compound. After the enzymatic reaction, 100 μl of a binding solution (1:100 dilution of the binding agent with the binding agent diluent) was added to each reaction and the reaction was performed at room temperature for 60 minutes. Fluorescence intensity was measured at an excitation of 485 nm and an emission of 528 nm using a Tecan Infinite M1000 microplate reader.
Data analysis: PDE activity assays were performed in duplicate at each concentration.
Fluorescence intensity is converted to fluorescence polarization using the Tecan Magellan6 software. The fluorescence polarization data were analyzed using the computer software, Graphpad Prism. The fluorescence polarization (FPt) in absence of the compound in each data set was defined as 100% activity. In the absence of PDE and the compound, the value of fluorescent polarization (FPb) in each data set was defined as 0% activity. The percent activity in the presence of the compound was calculated according to the following equation: % activity=(FP−FPb)/(FPt−FPb)×100%, where FP=the fluorescence polarization in the presence of the compound.
The values of % activity versus a series of compound concentrations were then plotted using non-linear regression analysis of Sigmoidal dose-response curve generated with the equation Y=B+(T−B)/1+10^((LogEC50−X)×Hill Slope), where Y=percent activity, B=minimum percent activity, T=maximum percent activity, X=logarithm of compound and Hill Slope=slope factor or Hill coefficient. The IC50 value was determined by the concentration causing a half-maximal percent activity.
The term IC50 denotes the concentration needed to halve the response being measured. High values mean weaker potency, low ones greater potency. For the molecule `COc1ccc(CNc2c3c(nc4ccc(C#N)cc24)CCN(C)C3)cc1Cl` [B, 10-[(3-chloro-4-methoxybenzyl)amino]-2-methyl-1,2,3,4-tetrahydrobenzo[b][1,6]naphthyridine-8-carbonitrile], the IC50 worked out at 1 nM. The figure for `CCN1CCc2nc3ccc(C#N)cc3c(NCc3ccc(OC)c(Cl)c3)c2C1` [C, 10-[(3-chloro-4-methoxybenzyl)amino]-2-ethyl-1,2,3,4-tetrahydrobenzo[b][1,6]naphthyridine-8-carbonitrile] is 0.2 nM; for `COc1ccc(CNc2c3c(nc4ccccc24)CN(C(C)(C)C)C3=O)cc1Cl` [Compound P, 2-(tert-butyl)-9-[(3-chloro-4-methoxybenzyl)amino]-2,3-dihydro-1H-pyrrolo[3,4-b]quinolin-1-one] it is 333 nM; for `CCN1Cc2nc3ccc(C#N)cc3c(NCc3ccc(OC)c(Cl)c3)c2C1=O` [K, 9-[(3-chloro-4-methoxybenzyl)amino]-2-ethyl-1-oxo-2,3-dihydro-1H-pyrrolo[3,4-b]quinoline-7-carbonitrile] it is 0.059 nM. As for `CCN1Cc2nc3ccc(OC)cc3c(NCc3ccc(OC)c(Cl)c3)c2C1=O` [L, 9-((3-chloro-4-methoxybenzyl)amino)-2-ethyl-7-methoxy-2,3-dihydro-1H-pyrrolo[3,4-b]quinolin-1-one], the figure is 3.8 nM; as for `CCN1Cc2nc3ccc(C(F)(F)F)cc3c(NCc3ccc(OC)c(Cl)c3)c2C1=O` [M, 9-[(3-chloro-4-methoxybenzyl)amino]-2-ethyl-7-(trifluoromethyl)-2,3-dihydro-1H-pyrrolo[3,4-b]quinolin-1-one], 0.29 nM; as for `CCN1Cc2nc3ccc(Cl)cc3c(NCc3ccc(OC)c(Cl)c3)c2C1=O` [N, 7-chloro-9-[(3-chloro-4-methoxybenzyl)amino]-2-ethyl-2,3-dihydro-1H-pyrrolo[3,4-b]quinolin-1-one], 1.7 nM. Turning to `CCN1Cc2nc3ccccc3c(NCc3ccc(OC)c(Cl)c3)c2C1=O` [O, 9-[(3-chloro-4-methoxybenzyl)amino]-2-ethyl-2,3-dihydro-1H-pyrrolo[3,4-b]quinolin-1-one], half-maximal inhibition (IC50) required 64 nM.
